In patent US9394331B2, “2′-spiro-nucleosides and derivatives thereof useful for treating hepatitis C virus and dengue virus infections” (priority 2010, dated 2016):
pEC50, pIC50: −log10 of the molar value. Where two headings read alike, the source gives them in different places.

Legend:
HCV replicon = HCV replicon assay (Clone A cells and ET-lunet cells, HCV RNA by real time PCR); format: cell-based, hepatitis C virus; settings: Table 3, HCV 1b replicon; for pEC50: read-out: EC50, anti-HCV 1b activity; for EC90: read-out: EC90, anti-HCV 1b activity
Procedure: HCV replicon assay. HCV replicon assays using Clone A cells and ET-lunet cells were performed as described previously. L. J. Stuyver et al. Antimicrob. Agents Chemother. 2004, 48, 651-654. Briefly, Clone A cells and ET-lunet cells were seeded at a density of 1500 and 3000 cells per well in a 96-well plate, respectively. Test compounds serially diluted in culture medium without G418 were added to cells. Plates were incubated at 37° C. in a 5% CO2 atmosphere for 4 days. Inhibition of HCV RNA replication was determined by quantitative real time PCR. See, e.g., L. J. Stuyver et al. Antiviral Chem. Chemother. 2006, 17, 79-87.
To express the antiviral effectiveness of a compound, the threshold RT-PCR cycle of the test compound was subtracted from the average threshold RT-PCR cycle of the no-drug control (ΔCtHCV). A ΔCt of 3.3 equals a 1-log 10 reduction (equal to the 90% effective concentration [EC90]) in replicon RNA levels. The cytotoxicity of the test compound could also be expressed by calculating the ΔCtrRNA values. The ΔΔCt specificity parameter could then be introduced (ΔCtHCV-ΔCtrRNA), in which the levels of HCV RNA are normalized for the rRNA levels and calibrated against the no-drug control.

[1] = system: Huh7, HepG2, BxPC3, or CEM cells; assay: Cell cytotoxicity assay (MTS); format: cell-based; settings: Table 3; cell line not stated
Procedure: (§1) Cell cytotoxicity assays. Each compound (serially diluted from 100 μM) was added to Huh7 (2×10^3 cells/well), HepG2 (2×10^3 cells/well), BxPC3 (2×10^3 cells/well), or CEM (5×10^3 cells/well) cells and allowed to incubate for 8 days at 37° C. A medium only control was used to determine the minimum absorbance value […]. At the end of the growth period, MTS dye from the CellTiter 96 Aqueous One Solution Cell Proliferation Assay kit (Promega) was added to each well and the plate was incubated for an additional 2 hours. The absorbance at 490 nm was read with a Victor3 plate reader (Perkin Elmer) using the medium only control wells as blanks. The 50% inhibition value (CC50) was determined by comparing the absorbance in wells containing cells and test compound to untreated cell control wells.

[2] = system: Dengue 2 strain New Guinea C; assay: Dengue CPE assay; format: cell-based, Dengue virus 2; settings: Table 6, BHK-21 cells, 3 days, 50% cells surviving, read-out: EC50, activity against dengue virus
Procedure: Dengue CPE Assay. To measure cytopathic effect of Dengue virus 2, BHK-21 ([…], CCL-10 ATCC Manassas, Va.) cells were seeded at a density of 20,000 cells/well in a 96-well black/clear bottom plates (Becton Dickinson, Franklin Lakes, N.J.) one day prior to start of the assay and allowed to attach overnight in EMEM (ATCC Manassas, Va.) +10% FBS (Invitrogen, Carlsbad, Calif.) at 37° C. in a humidified 5% CO2 atmosphere. The next day, the medium was removed and the cells were infected with Dengue 2 strain New Guinea C (VR-1584, ATCC Manassas, Va.) at an MOI of 0.08 pfu/cell for two hours in 50 μL EMEM+2% FBS. For both the single point and dose response assays, compounds (2× concentration) were diluted in EMEM+2% FBS and 50 μL was added to infected cells without removing virus. Cells were incubated for 3 days at 37° C. in a humidified 5% CO2 atmosphere. The medium was aspirated and 50 μL of CellTiter-Glo (Promega, Madison, Wis.) was added to each well and read for 0.1 seconds on a Perkin Elmer Victor3 (Waltham, Mass.) plate reader. Percent survival was determined by subtracting the average value of infected control wells and normalizing to the non-infected wells. The effective concentration was calculated from the dose response data by forecasting 50% cells surviving with drug treatment.

[3] = Cytotoxicity reported with the dengue assay; format: cell-based; settings: Table 6; cell line not stated
[4] = target: wild type NS5B Genotype 1b (Hepatitis C virus genotype 1b (isolate Con1) (HCV), UniProt Q9WMX2); assay: HCV NS5B polymerase reaction, wild type; format: biochemical; settings: Table 5, nucleoside triphosphates
[5] = Cell cytotoxicity assay (MTS); format: cell-based; settings: human; Table 3; cell line not stated; read-out: CC50
Procedure: as §1

S282T NS5B Genotype 1b = S282T NS5B Genotype 1b (Hepatitis C virus genotype 1b (isolate Con1) (HCV), UniProt Q9WMX2, S2701T); assay: HCV NS5B polymerase reaction, S282T mutant; format: biochemical; settings: Table 5, nucleoside triphosphates
Procedure: The HCV NS5B reaction was performed in a 20 μL mixture containing varying concentrations of the test compound, 1 μM of all four natural ribonucleotides, [α-^32P]UTP, 20 ng/μL of genotype 1b (−) IRES RNA template, 1 unit/μL of SUPERase•In (Ambion, Austin, Tex.), 40 ng/μL of wild type or S282T NS5B Genotype 1b, 1 mM MgCl2, 0.75 mM MnCl2, and 2 mM DTT in 50 mM Hepes buffer (pH 7.5). The reaction was quenched by adding 80 μL of stop solution (12.5 mM EDTA, 2.25 M NaCl, and 225 mM sodium citrate) after incubating at 27° C. for 30 minutes. The radioactive RNA products were separated from unreacted substrates by passing the quenched reaction mixture through a Hybond N+ membrane (GE Healthcare, Piscataway, N.J.) using a dot-blot apparatus. The RNA products were retained on the membrane and the free nucleotides were washed out. The membrane was washed 4 times with a solution containing 0.6 M NaCl and 60 mM sodium citrate. After rinsing the membrane with water followed by ethanol, the membrane was exposed to a phosphorscreen and the products were visualized and quantified using a phosphorimager. The IC50 values were calculated using GraFit program version 5 (Erithacus Software, Horley, Surrey, UK). All the reactions were done in duplicate and the results were reported as IC50±standard error.

Sequence of wild type NS5B Genotype 1b (Q9WMX2 2420-3010): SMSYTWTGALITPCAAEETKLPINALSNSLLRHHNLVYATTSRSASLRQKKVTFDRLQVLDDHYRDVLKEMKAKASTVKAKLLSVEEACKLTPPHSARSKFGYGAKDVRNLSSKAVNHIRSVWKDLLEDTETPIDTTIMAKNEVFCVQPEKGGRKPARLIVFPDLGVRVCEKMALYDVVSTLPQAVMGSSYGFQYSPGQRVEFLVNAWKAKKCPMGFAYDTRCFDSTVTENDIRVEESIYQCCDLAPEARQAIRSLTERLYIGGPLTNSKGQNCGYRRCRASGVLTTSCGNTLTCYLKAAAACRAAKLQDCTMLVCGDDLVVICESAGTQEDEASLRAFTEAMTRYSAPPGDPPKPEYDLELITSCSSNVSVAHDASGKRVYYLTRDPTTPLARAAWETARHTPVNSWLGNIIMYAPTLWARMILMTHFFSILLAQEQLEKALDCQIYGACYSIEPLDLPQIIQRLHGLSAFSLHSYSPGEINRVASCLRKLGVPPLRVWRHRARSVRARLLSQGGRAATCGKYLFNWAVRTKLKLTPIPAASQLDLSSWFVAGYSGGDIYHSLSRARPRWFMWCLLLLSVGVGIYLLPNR
Sequence of S282T NS5B Genotype 1b (Q9WMX2 2420-3010 S2701T): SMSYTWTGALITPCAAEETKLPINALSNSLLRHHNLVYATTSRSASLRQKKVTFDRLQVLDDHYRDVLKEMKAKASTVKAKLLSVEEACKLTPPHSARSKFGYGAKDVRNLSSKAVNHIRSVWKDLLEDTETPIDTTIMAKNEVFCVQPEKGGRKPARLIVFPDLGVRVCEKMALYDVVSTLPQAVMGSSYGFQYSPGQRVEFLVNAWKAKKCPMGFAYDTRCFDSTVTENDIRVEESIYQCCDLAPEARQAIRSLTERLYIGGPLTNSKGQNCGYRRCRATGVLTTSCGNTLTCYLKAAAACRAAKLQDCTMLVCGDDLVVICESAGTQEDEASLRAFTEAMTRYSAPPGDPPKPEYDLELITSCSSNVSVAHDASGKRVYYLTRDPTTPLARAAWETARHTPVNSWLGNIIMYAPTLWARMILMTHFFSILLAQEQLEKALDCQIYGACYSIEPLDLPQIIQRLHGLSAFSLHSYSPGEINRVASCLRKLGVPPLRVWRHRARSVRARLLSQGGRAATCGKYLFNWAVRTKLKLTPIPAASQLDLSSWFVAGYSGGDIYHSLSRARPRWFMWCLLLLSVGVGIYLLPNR

Compound | pEC50 (HCV replicon) | EC90 (HCV replicon) | CC50 [1] | pEC50 [2] | CC50 [3] | pIC50 [4] | CC50 at 8 days [5] | pEC50 ([2]; Dengue virus, BHK-21, 72 h) | also measured
CCCCOC(=O)[C@H](C)NP(=O)(OCC1OC(n2cnc3c(OC)nc(N)nc32)[C@@]2(CCO2)[C@@H]1O)Oc1ccccc1 (stereo partly drawn) [compound 127] | 5.51 | 6.45 µM | > 20 µM | 5.79 | > 20 µM | – | – | – | –
COc1nc(N)nc2c1ncn2C1OC(COP(=O)(N[C@@H](C)C(=O)OCc2ccccc2)Oc2ccccc2)[C@@H](O)[C@]12CCO2 (stereo partly drawn) [compound 131] | 4.93 | > 20 µM | > 20 µM | 5.83 | > 20 µM | – | – | – | –
Nc1ccn(C2OC(CO)[C@@H](O)[C@@]23CCCO3)c(=O)n1 (stereo partly drawn) [compound 138] | – | – | – | – | – | < 4.00 | – | – | –
COc1nc(N)nc2c1ncn2C1OC(COP(=O)(N[C@@H](C)C(=O)OCC(C)C)Oc2ccccc2)[C@@H](O)[C@]12CCO2 (stereo partly drawn) [compound 125] | 5.35 | 8.45 µM | > 20 µM | 5.70 | > 20 µM | – | – | – | –
CCOC(=O)[C@H](C)NP(=O)(OCC1OC(n2cnc3c(OC)nc(N)nc32)[C@@]2(CCO2)[C@@H]1O)Oc1ccccc1 (stereo partly drawn) [compound 122] | – | – | – | – | > 20 µM | – | > 20 µM | 5.23 | pEC50 (HCV replicon; Hepatitis C virus): 6.07; EC90 (HCV replicon; Hepatitis C virus): 3 µM
O=c1ccn(C2OC(CO)[C@@H](O)[C@]23CCO3)c(=O)[nH]1 (stereo partly drawn) [compound 136] | – | – | – | – | – | 4.40 | – | – | pIC50 (S282T NS5B Genotype 1b): < 4.00
COc1nc(N)nc2c1ncn2C1OC(COP(=O)(N[C@@H](C)C(=O)OC2CCCC2)Oc2ccccc2)[C@@H](O)[C@]12CCO2 (stereo partly drawn) [compound 128] | – | – | – | – | > 20 µM | – | > 20 µM | 5.55 | pEC50 (HCV replicon; Hepatitis C virus): 6.35; EC90 (HCV replicon; Hepatitis C virus): 1.09 µM
O=c1ccn(C2OC(CO)[C@@H](O)[C@@]23CCCO3)c(=O)[nH]1 (stereo partly drawn) [compound 135] | – | – | – | – | – | < 4.00 | – | – | –
Nc1ccn(C2OC(CO)[C@@H](O)[C@]23CCO3)c(=O)n1 (stereo partly drawn) [compound 140] | – | – | – | – | – | < 5.07 | – | – | pIC50 (S282T NS5B Genotype 1b): 4.25
COc1nc(N)nc2c1ncn2C1OC(COP(=O)(N[C@@H](C)C(=O)OC(C)C)Oc2ccccc2)[C@@H](O)[C@]12CCO2 (stereo partly drawn) [compound 119] | 5.34 | > 20 µM | > 20 µM | – | > 20 µM | – | – | 5.06 | –
Nc1ccn(C2OC(CO)[C@@H](O)[C@@]23CCO3)c(=O)n1 (stereo partly drawn) [compound 139] | – | – | – | – | – | < 4.00 | – | – | –
CCCCOC(=O)[C@H](C)NP(=O)(OCC1OC(n2cnc3c(OC)nc(N)nc32)[C@@]2(CCO2)[C@@H]1O)Oc1ccccc1 (stereo partly drawn) [compound 126] | 6.56 | 0.7 µM | – | – | > 20 µM | – | > 20 µM | 5.63 | –
COc1nc(N)nc2c1ncn2C1OC(COP(=O)(N[C@@H](C)C(=O)OC2CCCC2)Oc2ccccc2)[C@@H](O)[C@]12CCO2 (stereo partly drawn) [compound 129] | 6.17 | 1.97 µM | > 20 µM | 5.63 | > 20 µM | – | – | – | –
COc1nc(N)nc2c1ncn2C1OC(COP(=O)(N[C@@H](C)C(=O)OCC(C)(C)C)Oc2ccccc2)[C@@H](O)[C@]12CCO2 (stereo partly drawn) [compound 121] | 5.03 | 18.5 µM | > 20 µM | 5.65 | > 20 µM | – | – | – | –
COc1nc(N)nc2c1ncn2C1OC(COP(=O)(N[C@@H](C)C(=O)OCC(C)(C)C)Oc2ccccc2)[C@@H](O)[C@]12CCO2 (stereo partly drawn) [compound 120] | 6.41 | 0.676 µM | – | – | > 20 µM | – | > 20 µM | 5.73 | –
COc1nc(N)nc2c1ncn2C1OC(COP(=O)(N[C@@H](C)C(=O)OC(C)C)Oc2ccccc2)[C@@H](O)[C@]12CCO2 (stereo partly drawn) [compound 118] | 5.83 | 3.44 µM | – | 5.30 | > 20 µM | – | > 20 µM | – | –
Nc1ccn(C2OC(CO)[C@@H](O)[C@]23CCCO3)c(=O)n1 (stereo partly drawn) [compound 137] | – | – | – | – | – | < 4.34 | – | – | pIC50 (S282T NS5B Genotype 1b): < 4.00
COc1nc(N)nc2c1ncn2C1OC(COP(=O)(N[C@@H](C)C(=O)OCC(C)C)Oc2ccccc2)[C@@H](O)[C@]12CCO2 (stereo partly drawn) [compound 124] | 6.25 | 1.81 µM | – | – | > 20 µM | – | > 20 µM | 5.66 | –
